The values below come from ChEMBL document CHEMBL1143265, “Discovery of thiophene inhibitors of polo-like kinase” (Bioorg Med Chem Lett, 2009).

The test system of one data set is HCT-116. The data set can be described thus: Antiproliferative activity against human HCT116 cells after 3 days by methylene blue stain technique. Format: functional, cell-based. The settings on record: HCT-116, 72 h.
The target in data set [1] is Serine/threonine-protein kinase PLK1 (Homo sapiens, UniProt P53350). The data set can be described thus: Inhibition of PLK1 expressed in baculovirus-infected Trichoplusia-ni cells by scintillation proximity assay.
Chain of Serine/threonine-protein kinase PLK1 (P53350 whole entry): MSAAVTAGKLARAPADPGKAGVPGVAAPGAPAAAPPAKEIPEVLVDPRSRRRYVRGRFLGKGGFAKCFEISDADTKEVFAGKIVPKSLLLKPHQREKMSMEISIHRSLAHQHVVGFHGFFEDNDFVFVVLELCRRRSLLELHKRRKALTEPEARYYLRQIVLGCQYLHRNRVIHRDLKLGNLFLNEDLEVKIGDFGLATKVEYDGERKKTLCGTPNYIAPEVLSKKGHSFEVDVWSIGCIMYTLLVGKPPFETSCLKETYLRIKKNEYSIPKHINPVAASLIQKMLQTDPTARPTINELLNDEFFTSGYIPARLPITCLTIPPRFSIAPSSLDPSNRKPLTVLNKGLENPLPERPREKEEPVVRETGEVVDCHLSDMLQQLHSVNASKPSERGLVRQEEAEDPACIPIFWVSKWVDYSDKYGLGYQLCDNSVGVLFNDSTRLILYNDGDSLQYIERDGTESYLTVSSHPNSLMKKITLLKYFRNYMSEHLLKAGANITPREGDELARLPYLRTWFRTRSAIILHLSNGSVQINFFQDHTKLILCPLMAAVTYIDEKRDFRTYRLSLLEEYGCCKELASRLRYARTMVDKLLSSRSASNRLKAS
In data set [2] the target is Proto-oncogene tyrosine-protein kinase Src (Homo sapiens, UniProt P12931). The experiment in a line: Inhibition of Src.
Chain of Proto-oncogene tyrosine-protein kinase Src (P12931 2-536 limits assumed): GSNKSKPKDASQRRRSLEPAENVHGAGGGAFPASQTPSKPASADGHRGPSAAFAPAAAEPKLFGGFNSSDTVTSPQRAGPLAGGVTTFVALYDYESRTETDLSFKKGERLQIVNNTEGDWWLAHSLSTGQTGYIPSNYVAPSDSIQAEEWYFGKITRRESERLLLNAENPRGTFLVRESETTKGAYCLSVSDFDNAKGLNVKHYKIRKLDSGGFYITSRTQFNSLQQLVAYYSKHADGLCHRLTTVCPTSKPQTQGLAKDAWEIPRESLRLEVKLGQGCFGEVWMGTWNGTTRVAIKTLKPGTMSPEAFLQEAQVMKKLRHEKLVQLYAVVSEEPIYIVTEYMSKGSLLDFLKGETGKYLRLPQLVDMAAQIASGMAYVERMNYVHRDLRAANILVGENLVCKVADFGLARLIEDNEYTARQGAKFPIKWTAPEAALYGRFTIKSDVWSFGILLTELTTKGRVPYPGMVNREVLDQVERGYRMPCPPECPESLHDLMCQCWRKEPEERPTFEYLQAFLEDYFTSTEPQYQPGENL
A short description of data set [3]: Inhibition of GSK3.
Data set [4] can be described thus: Clearance in mouse at 6.7 mg/kg, iv. Format: ADME, organism-based. On the set-up: dose 6.7 mg/kg, route intravenous. The settings on record: in vivo.
For data set [5], the target named is Mitogen-activated protein kinase 14 (Homo sapiens, UniProt Q16539). The experiment in a line: Inhibition of p38alpha.
Chain of Mitogen-activated protein kinase 14 (Q16539 whole entry): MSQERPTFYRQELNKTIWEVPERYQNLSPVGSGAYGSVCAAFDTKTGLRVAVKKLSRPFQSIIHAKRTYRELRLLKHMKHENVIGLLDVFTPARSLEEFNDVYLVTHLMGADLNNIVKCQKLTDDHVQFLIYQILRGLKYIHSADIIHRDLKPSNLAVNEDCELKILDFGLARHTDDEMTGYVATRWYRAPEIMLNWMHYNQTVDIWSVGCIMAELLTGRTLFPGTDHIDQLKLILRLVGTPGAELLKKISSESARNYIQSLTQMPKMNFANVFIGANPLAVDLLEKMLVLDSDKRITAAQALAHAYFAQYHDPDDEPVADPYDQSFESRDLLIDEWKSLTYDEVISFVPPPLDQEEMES
Data set [6] has as its target Vascular endothelial growth factor receptor 3 (Homo sapiens, UniProt P35916). The data set can be described thus: Inhibition of VEGFR3.
In a further data set the test system is A549. The experiment in a line: Antiproliferative activity against human A549 cells after 3 days by methylene blue stain technique. Format: functional, cell-based. To be noted: A549, 72 h.
A short description of data set [7]: Oral bioavailability in mouse at 10 mg/kg. Format: ADME, organism-based. To be noted: in vivo.
A further data set relates to MCF7. The data set can be described thus: Antiproliferative activity against human MCF7 cells after 3 days by methylene blue stain technique. Format: functional, cell-based. To be noted: MCF7, 72 h.
A short description of data set [8]: AUC in mouse at 10 mg/kg, po. The settings on record: plasma. Format: ADME, organism-based. Set-up: dose 10 mg/kg, route oral.
The next data set relates to RKO. The experiment in a line: Antiproliferative activity against human RKO cells after 3 days by methylene blue stain technique. Format: functional, cell-based. The settings on record: 72 h.
The test system of the next data set is HN5. The experiment in a line: Antiproliferative activity against human HN5 cells after 3 days by methylene blue stain technique. The settings on record: HN5, 72 h. Format: functional, cell-based.
Data set [9] in a line: Volume of distribution at steady state in mouse at 6.7 mg/kg, iv. Format: ADME, organism-based. On the set-up: dose 6.7 mg/kg, route intravenous. To be noted: in vivo, read-out: Vdss.
For a further data set, the system named is PC-3. The experiment in a line: Antiproliferative activity against human PC3 cells after 3 days by methylene blue stain technique. To be noted: PC-3, 72 h. Format: functional, cell-based.
In the next data set the test system is NCI-N87. The data set can be described thus: Antiproliferative activity against human NCI-N87 cells after 3 days by methylene blue stain technique. Format: functional, cell-based. To be noted: NCI-N87, 72 h.
The next data set relates to NCI-H460. The data set can be described thus: Antiproliferative activity against human H460 cells after 3 days by methylene blue stain technique. Format: functional, cell-based. To be noted: NCI-H460, 72 h.
The target of data set [10] is Epidermal growth factor receptor (Homo sapiens, UniProt P00533). The data set can be described thus: Inhibition of EGFR.
Chain of Epidermal growth factor receptor (P00533 whole entry): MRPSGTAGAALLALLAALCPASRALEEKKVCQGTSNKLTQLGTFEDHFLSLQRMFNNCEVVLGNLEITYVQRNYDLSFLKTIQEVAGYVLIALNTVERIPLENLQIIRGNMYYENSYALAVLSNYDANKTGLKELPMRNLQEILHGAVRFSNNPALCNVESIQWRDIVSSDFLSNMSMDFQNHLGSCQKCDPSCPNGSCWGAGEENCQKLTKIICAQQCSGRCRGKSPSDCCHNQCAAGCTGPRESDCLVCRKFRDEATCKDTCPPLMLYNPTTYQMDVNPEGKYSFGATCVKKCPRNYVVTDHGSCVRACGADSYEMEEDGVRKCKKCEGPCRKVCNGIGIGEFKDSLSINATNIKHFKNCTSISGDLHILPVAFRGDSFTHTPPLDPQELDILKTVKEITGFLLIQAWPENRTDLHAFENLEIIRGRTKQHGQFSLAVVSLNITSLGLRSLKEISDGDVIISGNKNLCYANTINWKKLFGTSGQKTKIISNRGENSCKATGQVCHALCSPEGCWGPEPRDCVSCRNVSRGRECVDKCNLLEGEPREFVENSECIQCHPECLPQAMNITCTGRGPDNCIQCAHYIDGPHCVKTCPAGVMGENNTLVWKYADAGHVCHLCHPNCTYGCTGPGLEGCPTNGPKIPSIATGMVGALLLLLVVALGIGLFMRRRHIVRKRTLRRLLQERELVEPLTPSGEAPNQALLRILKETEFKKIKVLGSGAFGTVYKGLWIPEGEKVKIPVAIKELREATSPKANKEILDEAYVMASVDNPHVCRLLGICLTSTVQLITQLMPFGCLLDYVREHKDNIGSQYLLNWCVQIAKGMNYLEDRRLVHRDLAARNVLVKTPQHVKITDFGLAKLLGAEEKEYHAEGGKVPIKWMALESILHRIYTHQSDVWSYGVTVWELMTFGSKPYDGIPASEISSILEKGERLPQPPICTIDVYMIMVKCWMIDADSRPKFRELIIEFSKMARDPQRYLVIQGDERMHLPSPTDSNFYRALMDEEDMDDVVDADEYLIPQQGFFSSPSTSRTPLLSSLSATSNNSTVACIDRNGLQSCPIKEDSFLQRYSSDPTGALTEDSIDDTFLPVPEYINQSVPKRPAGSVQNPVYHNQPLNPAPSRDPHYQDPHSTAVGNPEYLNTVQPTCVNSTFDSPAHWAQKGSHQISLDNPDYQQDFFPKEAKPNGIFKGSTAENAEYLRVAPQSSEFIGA

pIC50: −log10 of the molar value.

Chain of Vascular endothelial growth factor receptor 3 (P35916 whole entry): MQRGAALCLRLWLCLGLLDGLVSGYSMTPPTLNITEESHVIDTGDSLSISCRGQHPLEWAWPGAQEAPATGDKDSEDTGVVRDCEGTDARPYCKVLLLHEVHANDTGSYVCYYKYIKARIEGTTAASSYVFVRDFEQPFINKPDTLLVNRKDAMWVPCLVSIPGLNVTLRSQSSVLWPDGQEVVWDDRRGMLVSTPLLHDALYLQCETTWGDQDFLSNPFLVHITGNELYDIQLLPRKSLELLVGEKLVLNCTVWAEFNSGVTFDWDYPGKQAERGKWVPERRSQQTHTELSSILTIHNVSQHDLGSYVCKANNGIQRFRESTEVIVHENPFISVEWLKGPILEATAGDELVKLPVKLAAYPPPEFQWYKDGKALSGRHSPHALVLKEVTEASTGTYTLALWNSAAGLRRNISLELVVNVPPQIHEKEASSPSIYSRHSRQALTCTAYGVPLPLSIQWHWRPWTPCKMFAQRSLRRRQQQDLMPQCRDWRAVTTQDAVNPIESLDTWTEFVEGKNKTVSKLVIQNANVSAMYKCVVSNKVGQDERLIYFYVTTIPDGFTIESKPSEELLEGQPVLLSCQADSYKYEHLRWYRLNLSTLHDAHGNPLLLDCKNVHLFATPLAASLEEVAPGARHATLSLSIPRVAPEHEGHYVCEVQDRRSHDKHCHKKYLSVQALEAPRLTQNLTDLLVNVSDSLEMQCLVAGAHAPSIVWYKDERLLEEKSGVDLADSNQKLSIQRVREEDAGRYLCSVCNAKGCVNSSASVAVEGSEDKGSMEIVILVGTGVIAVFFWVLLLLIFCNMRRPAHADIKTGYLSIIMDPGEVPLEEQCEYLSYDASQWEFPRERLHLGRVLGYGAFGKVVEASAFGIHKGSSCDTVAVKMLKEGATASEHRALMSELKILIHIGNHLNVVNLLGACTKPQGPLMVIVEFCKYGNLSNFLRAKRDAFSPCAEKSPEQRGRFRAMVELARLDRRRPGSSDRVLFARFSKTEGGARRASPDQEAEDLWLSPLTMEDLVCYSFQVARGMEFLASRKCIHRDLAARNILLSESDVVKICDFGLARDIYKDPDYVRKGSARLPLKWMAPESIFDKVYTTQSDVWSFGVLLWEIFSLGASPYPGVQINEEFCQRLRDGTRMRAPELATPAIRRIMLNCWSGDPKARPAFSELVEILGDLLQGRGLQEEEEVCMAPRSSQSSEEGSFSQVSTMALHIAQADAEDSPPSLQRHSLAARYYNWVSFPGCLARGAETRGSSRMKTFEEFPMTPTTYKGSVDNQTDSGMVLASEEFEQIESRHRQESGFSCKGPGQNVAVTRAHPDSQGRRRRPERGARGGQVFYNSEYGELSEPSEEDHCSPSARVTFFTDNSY

For `COc1cc2ncn(-c3cc(OCc4ccccc4OC(F)(F)F)c(C(N)=O)s3)c2cc1OC`, the pIC50 with HCT-116 is 5.94; in [1], 8.30. For the molecule `COc1cc2ncn(-c3cc(OCc4ccccc4Br)c(C(N)=O)s3)c2cc1OC`, the pIC50 was 6.03 with HCT-116 and 8.70 in [1]. Turning to `NC(=O)c1sc(-n2cnc3ccccc32)cc1OCc1ccccc1`, the pIC50 in data set [1] was 7.21. The molecule `NC(=O)c1sc(-n2cnc3ccccc32)cc1OCc1cccc(Cl)c1` had a pIC50 in [1] of 7.66. For the molecule `COc1cc2ncn(-c3cc(OCc4ccccc4C(F)(F)F)c(C(C)=O)s3)c2cc1OC` [GSK-1030059A], the pIC50 in data set [1] is 7.07. `COc1cc2ncn(-c3cc(OCCCc4ccccc4)c(C(N)=O)s3)c2cc1OC` showed a pIC50 in the data set on HCT-116 of 5.11. In [1], `NC(=O)c1sc(-n2cnc3ccccc32)cc1OCc1ccccc1Cl` had a pIC50 of 7.92. For the molecule `COc1cc2ncn(-c3cc(OCc4ccccc4C(F)(F)F)c(C#N)s3)c2cc1OC`, the pIC50 in [1] was 6.15. In the case of `Cc1ccccc1COc1cc(-n2cnc3ccc(Cl)cc32)sc1C(N)=O`, the values for the pIC50 (in the data set on HCT-116; in data set [1]) were 5.77 and 8.40, respectively. Molecule `COc1ccccc1COc1cc(-n2cnc3ccccc32)sc1C(N)=O` had a pIC50 in data set [1] of 7.92. As to `NC(=O)c1sc(-n2cnc3ccccc32)cc1OCc1ccc(Cl)cc1`, the negative-log IC50 (pIC50) in data set [1] is 7.00.

Regarding `COc1cc2ncn(-c3cc(OCc4cccc(N(C)C)c4)c(C(N)=O)s3)c2cc1OC`, the pIC50 was 5.46 in the data set with HCT-116 and 7.51 in [1]. The like results for `CS(=O)(=O)c1ccc2ncn(-c3cc(OCc4ccccc4C(F)(F)F)c(C(N)=O)s3)c2c1` were, in that order, 5.53 and 7.92. `COc1cc2ncn(-c3cc(OCCc4ccccc4)c(C(N)=O)s3)c2cc1OC` [GSK-204925A]: the pIC50 in the data set with HCT-116 was 4.62. Turning to `COc1cc2ncn(-c3cc(OCc4ccccc4C#N)c(C(N)=O)s3)c2cc1OC`, the pIC50 with HCT-116 is 5.58; in data set [1], 8.22. `COc1cc2ncn(-c3cc(OCc4ccccc4C(F)(F)F)c(-c4nnn[nH]4)s3)c2cc1OC`: in the data set on HCT-116, the pIC50 is less than 4.52. `Cc1ccccc1COc1cc(-n2cnc3ccccc32)sc1C(N)=O` had a pIC50 in [1] of 7.92. `COc1cc2ncn(-c3cc(OCc4ccccc4)c(C(N)=O)s3)c2cc1OC`: the values for the pIC50 (in the data set with HCT-116; in data set [1]) were 5.96 and 7.92, respectively. On to `COc1ccc(COc2cc(-n3cnc4cc(OC)c(OC)cc43)sc2C(N)=O)cc1`, for which the pIC50 is 4.92 with HCT-116 and 7.89 in data set [1].

`NC(=O)c1sc(-n2cnc3ccccc32)cc1OCc1ccccc1Br` [GSK-1023156A] showed a pIC50 in data set [1] of 7.96. With `COc1cc2ncn(-c3cc(OCc4ccncc4)c(C(N)=O)s3)c2cc1OC`, the pIC50 with HCT-116 was 4.68; in data set [1] it was 6.89. Molecule `Cc1cccc(COc2cc(-n3cnc4ccccc43)sc2C(N)=O)c1` showed a pIC50 in [1] of 7.92. For the molecule `COc1cc2ncn(-c3cc(OCc4ccccc4C(F)(F)F)c(C(N)=S)s3)c2cc1OC`, the pIC50 is less than 4.52 with HCT-116 and 8.22 in data set [1]. The like results for `COc1cc2ncn(-c3cc(OCc4ccsc4)c(C(N)=O)s3)c2cc1OC` were, in that order, 5.82 and 7.77. Regarding `COc1cc2ncn(-c3cc(OCc4cccc(C#N)c4)c(C(N)=O)s3)c2cc1OC`, the pIC50 was less than 4.52 in the data set with HCT-116 and 7.00 in [1]. For `COc1cc2ncn(-c3cc(OCc4ccoc4)c(C(N)=O)s3)c2cc1OC`, in that order: 4.72 and 6.72.

In the data set on HCT-116, `COc1cc2ncn(-c3cc(OCC4CCCCC4)c(C(N)=O)s3)c2cc1OC` gave a pIC50 of 5.51. As for `COC(=O)c1sc(-n2cnc3cc(OC)c(OC)cc32)cc1OCc1ccccc1C(F)(F)F` [GSK-1030058A], in data set [1], the pIC50 is less than 6.00.

As to `COc1ccc2c(c1)ncn2-c1cc(OCc2ccccc2C(F)(F)F)c(C(N)=O)s1`, the pIC50 in the data set on HCT-116 is 5.57; in data set [1], 8.10.

Regarding `COc1cc2ncn(-c3cc(OCc4ccccc4S(C)(=O)=O)c(C(N)=O)s3)c2cc1OC`, the pIC50 in the data set on HCT-116 is 5.27; in data set [1], 7.51.

In the case of `COc1cc2ncn(-c3cc(OCc4ccccc4C(F)(F)F)c(C(=O)N(C)C)s3)c2cc1OC` [GSK-1030062A], the pIC50 in [1] is less than 6.00.

`NC(=O)c1sc(-n2cnc3cc(C(F)(F)F)ccc32)cc1OCc1ccccc1Br` [GW853609X]: the pIC50 in the data set on HCT-116 is less than 4.52; in data set [1], 6.52.

On to `COc1cc2ncn(-c3cc(OCc4ccccc4C(F)(F)F)c(C(N)=O)s3)c2cc1OC` [GW843682X], for which the pIC50 with HCT-116 is 6.16; in [2], less than 4.52; in data set [3] it was less than 4.82; in [5], less than 4.82; in data set [6] it was 7.04; in the data set on A549, 6.39. Besides, the pIC50 in data set [1] is 8.70; in the data set with MCF7, 6.25; in the data set on RKO, 6.40; in the data set on HN5, 6.17; with PC-3 it was 5.17; in the data set with NCI-N87, 6.22. The pIC50 with NCI-H460 was 6.42; in data set [10], less than 4.32. In data set [4], this molecule had a clearance of 47.4 mL/min/kg. The bioavailability in [7] is 14%. This molecule also registered an AUC in [8] of 489 ng·h/mL. Besides, in data set [9], the Vd is 1.5 L/kg. Regarding `COc1cc2ncn(-c3cc(OCc4ccccc4Cl)c(C(N)=O)s3)c2cc1OC` [GW852849X], the pIC50 is 6.00 with HCT-116 and 8.70 in data set [1]. For `COc1cc2ncn(-c3cc(OCc4cccc(N)c4)c(C(N)=O)s3)c2cc1OC`, in that order: 5.64 and 7.68. The like results for `COc1cc2ncn(-c3cc(OCc4sccc4Cl)c(C(N)=O)s3)c2cc1OC` were, in that order, 5.83 and 8.70.

Consider `Cc1ccc(COc2cc(-n3cnc4ccccc43)sc2C(N)=O)cc1`, for which the pIC50 in data set [1] was 7.15. Regarding `COc1cc2ncn(-c3cc(OCc4ccnc(Br)c4)c(C(N)=O)s3)c2cc1OC`, the pIC50 in the data set on HCT-116 was 5.75; in data set [1] it was 7.85. Take `COc1cccc(COc2cc(-n3cnc4ccccc43)sc2C(N)=O)c1` [GW804482X]: the pIC50 in data set [1] was 7.55. Consider `Cc1ccccc1COc1cc(-n2cnc3cc(Cl)ccc32)sc1C(N)=O`, for which the pIC50 in the data set on HCT-116 is less than 4.55; in data set [1], 7.68.

Regarding `COc1cc2ncn(-c3cc(OCc4ccc(S(C)(=O)=O)cc4)c(C(N)=O)s3)c2cc1OC`, the negative-log IC50 (pIC50) was less than 4.52 with HCT-116 and 7.12 in [1]. On to `COc1cc2ncn(-c3cc(OCc4ccco4)c(C(N)=O)s3)c2cc1OC`, for which the results for the pIC50 (in the data set with HCT-116; in data set [1]) were less than 4.60 and 7.57, respectively. As to `COc1ccc(COc2cc(-n3cnc4ccccc43)sc2C(N)=O)cc1`, in data set [1], the pIC50 was 7.46.

Take `COc1ccc2ncn(-c3cc(OCc4ccccc4C(F)(F)F)c(C(N)=O)s3)c2c1`: the pIC50 with HCT-116 was 5.91; in data set [1], 8.70. In [1], `CNC(=O)c1sc(-n2cnc3cc(OC)c(OC)cc32)cc1OCc1ccccc1C(F)(F)F` [GSK-1030061A] showed a pIC50 of less than 6.00. The same measure, in the same setting: to `NC(=O)c1sc(-n2cnc3ccccc32)cc1OCc1ccccc1F` belongs 7.85.

On to `COc1ccccc1COc1cc(-n2cnc3cc(OC)c(OC)cc32)sc1C(N)=O`, for which the pIC50 is 5.68 in the data set on HCT-116 and 8.10 in data set [1]. With `CS(=O)(=O)c1ccc2c(c1)ncn2-c1cc(OCc2ccccc2C(F)(F)F)c(C(N)=O)s1`, the pIC50 in the data set with HCT-116 was less than 4.52; in data set [1], 6.60.

Regarding `COc1cc2ncn(-c3cc(OCC4CCCC4)c(C(N)=O)s3)c2cc1OC`, the pIC50 was 5.47 with HCT-116 and 7.47 in data set [1]. On to `COc1cc2ncn(-c3cc(OCc4ccccc4C(C)=O)c(C(N)=O)s3)c2cc1OC`, for which the pIC50 in the data set on HCT-116 is 5.58; in [1], 7.77.

`COc1cc2ncn(-c3cc(OCc4ccccc4C(F)(F)F)c(C(=O)O)s3)c2cc1OC` showed a pIC50 in the data set on HCT-116 of 5.12.

With `COc1cc2ncn(-c3cc(OCc4cccs4)c(C(N)=O)s3)c2cc1OC` [GSK-312948A], the pIC50 in the data set on HCT-116 is 5.81; in data set [1], 7.96. The like results for `NC(=O)c1sc(-n2cnc3ccc(C(F)(F)F)cc32)cc1OCc1ccccc1Br` [GW853606X] were, in that order, 5.44 and 8.05.
